Results reported in patent EP0103381B1, “Substituted anthra(1,9-cd)pyrazol-6(2H)-ones” (WARNER-LAMBERT COMPANY, priority 1982, dated 1984).

Experiments:
Assay in all cases: agar plate paper-disc inhibition zone screening
Format in all cases: cell-based
Aerobacter aerogenes = settings: Klebsiella aerogenes, read-out: Inhibition Zone Diameter mm (Dose mg/ml) A. Aerogenes; for zone of inhibition at 3000 µg/mL: Dose 3.0 mg/ml; for zone of inhibition at 500 µg/mL: Dose 0.5 mg/ml
Protocol: (§1) The bacterial and yeast isolates are maintained in agar slants or in liquid media, hereby designated as inoculum media. The cultures are transferred at regular intervals in such media. (See Table for the corresponding inoculum media of each culture.) The organisms are generally transferred on to agar slants or liquid inoculum media and incubated overnight (18-20 hours): 37°C for the bacterial isolates and 28°C for the fungal cultures.
(§2) The microbial cells from the overnight agar slants are then scraped off and suspended in saline solution (0.85% NaCI). The microbial concentrations are adjusted to a light transmittancy of 20-35%, Junior Coleman Spectrophotometer (555 M). For the organisms that are maintained in liquid media, an aliquot of the culture suspension is simply diluted with saline to 20-35% light transmittancy.
(§3) The above microbial suspension serve as inocula for the assay plates. Thus, 0.16-10 ml (see Table for exact amount) are used to inoculate 100 ml of the molten-agar assay medium.
(§4) Stainless steel frames, 12.3 x 25.3 cm (ID) and glass plates, 15.3 x 31.7 cm are used to make the test trays. The frames are attached to the plates with tape at each end and the inner edges sealed with 2% agar. Twenty five ml of inoculated assay medium is spread evenly on each tray and allowed to solidify. The trays are covered, inverted, and refrigerated until used.
(§5) The compounds or samples to be tested are dissolved in suitable solvents, e.g., alcohols, dimethylsulfoxide, or N,N-dimethylformamide. The samples are generally dissolved so that the final concentration of the solvent is <10%.^* The compounds are tested at different concentrations: 3,000; 1,000; 500; 100; and 10 mcg/ml. Paper discs (12.7 mm diameter) are placed on the agar trays with forceps, then 0.08 ml of the dissolved compound is pipetted onto each disc using a 0.2 ml pipette.
(§6) The disked agar trays are incubated overnight (18-20 hours) at 37°C for the bacterial cultures and 28°C for the yeasts. The Penicillium avellaneium tray is incubated for at least […] since it is a slower- growing organism.
(§7) Active compounds show a zone of inhibition around the disc. The diameter of the zone is measured in mm. The zone diameter of active compounds ranges from a minimum of 13.5 mm to as high as 60 mm. The size of the zone diameter generally reflects the activity of the compound: the larger the zone the greater the activity.

Bacillus subtilis = settings: read-out: Inhibition Zone Diameter mm (Dose mg/ml) B. Subtilis; for zone of inhibition at 1000 µg/mL: Dose 1.0 mg/ml; for zone of inhibition at 500 µg/mL: Dose 0.5 mg/ml; for zone of inhibition at 100 µg/mL: Dose 0.1 mg/ml; for zone of inhibition at 3000 µg/mL: Dose 3.0 mg/ml
Protocol: as §1, §2, §3, §4, §5, §6, §7

Escherichia coli = settings: read-out: Inhibition Zone Diameter mm (Dose mg/ml) E. Coli; for zone of inhibition at 3000 µg/mL: Dose 3.0 mg/ml; for zone of inhibition at 1000 µg/mL: Dose 1.0 mg/ml; for zone of inhibition at 500 µg/mL: Dose 0.5 mg/ml
Protocol: as §1, §2, §3, §4, §5, §6, §7

Streptococcus faecalis = settings: Enterococcus faecalis, read-out: Inhibition Zone Diameter mm (Dose mg/ml) S. Faecalis; for zone of inhibition at 3000 µg/mL: Dose 3.0 mg/ml; for zone of inhibition at 1000 µg/mL: Dose 1.0 mg/ml
Protocol: as §1, §2, §3, §4, §5, §6, §7

Penicillium avellaneum = settings: Hamigera avellanea, read-out: Inhibition Zone Diameter mm (Dose mg/ml) P. Avellaneum; for zone of inhibition at 3000 µg/mL: Dose 3.0 mg/ml; for zone of inhibition at 500 µg/mL: Dose 0.5 mg/ml
Protocol: The Penicillium avellaneum is grown for six days, at 28°C, on an agar medium. This is to allow sporulation of the culture. The organism is then harvested by scraping off the cells from the agar surface (mycelia and spores) and suspending them in saline solution containing 0.05% Tween 80.
The suspension is adjusted to a light transmittancy of 20%. One ml of this suspension is used to inoculate 100 ml of the molten-agar assay medium.
as §4, §5, §6, §7

SMILES	zone of inhibition at 3000 µg/mL (Aerobacter aerogenes) [mm]	zone of inhibition at 1000 µg/mL (Bacillus subtilis) [mm]	zone of inhibition at 3000 µg/mL (Escherichia coli) [mm]	zone of inhibition at 3000 µg/mL (Streptococcus faecalis) [mm]	zone of inhibition at 3000 µg/mL (Penicillium avellaneum) [mm]	zone of inhibition at 3000 µg/mL (Bacillus subtilis) [mm]	other results
CCN(CC)CCCCCCCNc1ccc2c3c(nn2CCO)-c2ccccc2C(=O)c13 [Example 17, 5-[[7-(Diethylamino)heptyl]amino]-2-(2-hydroxyethyl)anthra[1,9-cd]pyrazol-6(2H)-one]	0	20	0	0	0		
O=C1c2c(NCCNCCO)cccc2-c2nn(CCNCCO)c3cccc1c23 [Example 81, 2-[2-[(2-Hydroxyethyl)amino]lethyl]-7-[[2-[(2-hydroxyethyl)amino]ethyl]amino]anthra[1,9-cd]pyrazol-6(2H)-one]				0	0		zone of inhibition at 500 µg/mL (Aerobacter aerogenes): 17 mm; zone of inhibition at 500 µg/mL (Bacillus subtilis): 16 mm; zone of inhibition at 1000 µg/mL (Escherichia coli): 20 mm
CCN(CC)CCn1nc2c3c(c(Cl)ccc31)C(=O)c1ccccc1-2 [H; Cl*; (CH2)2NEt2, 5-Chloro-2-[2-(diethylamino)ethyl]anthra[1,9-cd]pyrazol-6(2H)-one]							zone of inhibition at 500 µg/mL (Aerobacter aerogenes): 14 mm; zone of inhibition at 100 µg/mL (Bacillus subtilis): 16 mm; zone of inhibition at 500 µg/mL (Escherichia coli): 14 mm; zone of inhibition at 1000 µg/mL (Streptococcus faecalis): 16 mm; zone of inhibition at 500 µg/mL (Penicillium avellaneum): 16 mm
CCN(CC)CCn1nc2c3c(c(Cl)ccc31)C(=O)c1c(O)ccc(O)c1-2 [Example 49, 5-Chloro-2-[2-(diethylamino)ethyl]-7,1 0-dihydroxyanthra[1,9-cd] pyrazol-6(2H)-one]	0	14	0	0	16		
O=C1c2ccccc2-c2nn(CCNCCO)c3ccc(NCCO)c1c23 [Example 24, 5-[(2-Hydroxyethyl)amino]-2-[2-[(2-hydroxyethyl)amino]ethyl]anthra[1,9-cd]pyrazol-6(2H)-one]					0		zone of inhibition at 1000 µg/mL (Aerobacter aerogenes; Dose 1.0 mg/ml): 14 mm; zone of inhibition at 500 µg/mL (Bacillus subtilis): 18 mm; zone of inhibition at 500 µg/mL (Escherichia coli): 15 mm; zone of inhibition at 1000 µg/mL (Streptococcus faecalis): 14 mm
Cn1nc2c3c(c(NCCN)ccc31)C(=O)c1c(O)ccc(O)c1-2 [Example 40, 5-[(2-Aminoethyl)amino]-7,10-dihydroxy-2-methylanthra[1,9-cd]pyrazol-6(2H)-one]	14		14	14	0	0	
CN(C)CCn1nc2c3c(c(Cl)ccc31)C(=O)c1c(O)ccc(O)c1-2 [7,10-(OH)2; Cl*; (CH2)2NMe2, 5-Chloro-2-[2-(dimethylamino)ethyl]-7,10-dihydroxyanthra[1,9-cd]pyrazol-6(2H)-one]	15			0		0	zone of inhibition at 1000 µg/mL (Escherichia coli): 14 mm; zone of inhibition at 500 µg/mL (Penicillium avellaneum): 15 mm
COCCn1nc2c3c(c(NCCN)ccc31)C(=O)c1c(O)ccc(O)c1-2 [Example 77, 5-[(2-Aminoethyl)amino]-7,10-dihydroxy-2-(2-methoxyethyl)anthra(1,9-cd]pyrazol-6(2H)-one]	14		16	0	0	16	
CCN(CC)CCCCNc1ccc2c3c(nn2CCO)-c2ccccc2C(=O)c13 [Example 16, 5-[[4-(Diethylamino)butyl]amino]-2-(2-hydroxyethyl)anthra[1,9-cd]pyrazol-6(2H)-one]	0	25	0	0	0		
CN(C)CCNCCn1nc2c3c(c(Cl)ccc31)C(=O)c1c(O)ccc(O)c1-2 [7,10-(OH)2; Cl*; (CH2)2NH(CH2)2NMe2, 5-Chloro-2-[2-[[2-(dimethylamino)ethyl]amino]ethyl]-7,10-dihydroxyanthra[1,9-cd]pyrazol-6(2H)-one]	0		0	0	0	14	
CN(CCO)CCn1nc2c3c(c(Cl)ccc31)C(=O)c1c(O)ccc(O)c1-2 [7,10-(OH)2; Cl*; Me | (CH2)2N (CH2)2OH, 5-Chloro-7,10-dihydroxy-2-[2-[(2-hydroxyethyl)methylamino]ethyl]anthra[1,9-cd]pyrazol-6(2H)-one]	0		14	0	0	0	
CCN(CC)CC(O)Cn1nc2c3c(c(Cl)ccc31)C(=O)c1c(O)ccc(O)c1-2 (stereo not shown) [7,10-(OH)2; Cl*; CH2CHOHCH2NEt2, 5-Chloro-2-[3-(diethylamino)-2-hydroxypropyl]-7,10-dihydroxyanthra[1,9-cd]pyrazol-6(2H)-one]	0			14	14	14	zone of inhibition at 500 µg/mL (Escherichia coli): 14 mm
O=C1c2ccccc2-c2nn(CCO)c3ccc(NCCNCCO)c1c23 [Example 12, 2-(2-Hydroxyethyl)-5-[[2-[(2-hydroxyethyl)amino]ethyl]amino]anthra[1,9-cd]pyrazol-6(2H)-one]			14	16	0		zone of inhibition at 500 µg/mL (Aerobacter aerogenes): 14 mm; zone of inhibition at 100 µg/mL (Bacillus subtilis): 14 mm
O=C1c2c(O)ccc(O)c2-c2nn(CCNCCO)c3ccc(NCCN4CCOCC4)c1c23 [Example 61, 7,10-Dihydroxy-2-[2-[(2-hydroxyethyl)amino]ethyl]-5-[[2-(4-morpholinyl)ethyl]amino]anthra[1,9-cd]pyrazol-6(2H)-one]	0	15	14	0	0		
CCN(CC)CC(O)Cn1nc2c3c(c(Cl)ccc31)C(=O)c1ccccc1-2 (stereo not shown) [H; Cl*; CH2CHOHCH2NEt2]	17	14					zone of inhibition at 500 µg/mL (Escherichia coli): 14 mm; zone of inhibition at 1000 µg/mL (Streptococcus faecalis): 15 mm; zone of inhibition at 1000 µg/mL (Penicillium avellaneum; Dose 1.0 mg/ml): 16 mm
CCCCCCNc1ccc2c3c(nn2CCN(CC)CC)-c2ccccc2C(=O)c13 [Example 8, 2-[2-(Diethylamino)ethyl]-5-(hexylamino)anthra[1,9-cd]pyrazol-6(2H)-one]	0	16	0	0	16		
NCCNc1ccc2c3c(nn2CCN)-c2c(O)ccc(O)c2C(=O)c13 [Example 72, 2-(2-Aminoethyl)-5-[(2-aminoethyl)amino]-7,10-dihydroxyanthra[1,9-cd]pyrazol-6(2H)-one]	14		0	0	0	0	
